Drawing on PubChem BioAssay (NCI), this text covers TGI for 23 compounds.

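These data come from cells grown in 96-well plates and exposed to compound for 48 hours at five concentrations. TGI marks complete inhibition of growth.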

Test systems include UO-31 renal; UACC-62 melanoma; A549 NSCLC; HT29 colon; COLO 205 colon; SNB-19 CNS; NCI-H460 lung; HS 578T breast.
Experiment in all cases: NCI anticancer screen, dose series, 48 h

In the case of `C/C(=N\N=C1/C(=O)OC(c2ccccc2)=C1C(=O)c1ccccc1)c1ccc([N+](=O)[O-])cc1`, the TGI in the assay on UO-31 renal, in the assay on UACC-62 melanoma, with A549 NSCLC, in the assay with HT29 colon, in the assay with COLO 205 colon and in the assay on SNB-19 CNS was over 100 µM each time. Also, the TGI in the assay on NCI-H460 lung and in the assay on HS 578T breast was over 100 µM throughout.
Take `O=C(O)[C@H]1CCCN1CP(=O)(O)CN1CCC[C@@H]1C(=O)O`: the TGI with UO-31 renal, with UACC-62 melanoma, in the assay with A549 NSCLC, in the assay on HT29 colon, in the assay on COLO 205 colon and in the assay on SNB-19 CNS was over 100 µM throughout. Further, the TGI in the assay with NCI-H460 lung and in the assay with HS 578T breast was over 100 µM in each case.
As to `Cc1nn(-c2ccccc2)c2c1C(c1cc3ccccc3nc1Cl)NC(=O)N2` (centres undefined), the TGI in the assay on UO-31 renal was 28.2 µM; in the assay on UACC-62 melanoma, 42.5 µM; in the assay with A549 NSCLC, over 100 µM; with HT29 colon it was 35.4 µM; with COLO 205 colon, 41.1 µM; in the assay on SNB-19 CNS, 48.1 µM. The TGI in the assay on NCI-H460 lung is over 100 µM; in the assay on HS 578T breast, 96.2 µM.
Turning to `N#CC(C#N)=C1SC(=Nc2ccccc2)C(=Nc2ccccc2)N1c1ccccc1`, the TGI in the assay with UO-31 renal was 25.3 µM; with UACC-62 melanoma, 14.2 µM; in the assay with A549 NSCLC, over 100 µM; in the assay on HT29 colon it was over 69.9 µM; with COLO 205 colon, 30.2 µM; in the assay with SNB-19 CNS, over 100 µM. Besides, the TGI with NCI-H460 lung was over 31.6 µM; with HS 578T breast, over 93 µM.
`Cc1nc(C)c(N2CCN([N+](=O)[O-])CC2)c(=O)[nH]1`: the TGI with UO-31 renal, in the assay on UACC-62 melanoma, in the assay on A549 NSCLC, with HT29 colon, with COLO 205 colon and in the assay with SNB-19 CNS was over 100 µM throughout. For the same compound, the TGI with NCI-H460 lung and in the assay with HS 578T breast was over 100 µM in each case.
In the case of `CC(NC(=O)Cc1ccccc1)NC(=O)C(C)C(=O)Nc1ccccc1` (centres undefined), the TGI in the assay on UO-31 renal was over 100 µM; in the assay on UACC-62 melanoma, over 100 µM; with A549 NSCLC it was over 100 µM; in the assay on HT29 colon, over 100 µM; with COLO 205 colon, over 100 µM; with SNB-19 CNS it was 75.8 µM. For the same compound, the values for the TGI in the assay on NCI-H460 lung and in the assay on HS 578T breast were over 100 µM and 88 µM, respectively.
In the case of `O=[N+]([O-])C(=C(Nc1cccc2cccnc12)Nc1cccc2cccnc12)C(Cl)=C(Cl)Cl`, the TGI with UO-31 renal, in the assay on UACC-62 melanoma, with A549 NSCLC, in the assay with HT29 colon, with COLO 205 colon and in the assay with SNB-19 CNS was over 100 µM throughout. In addition, the TGI in the assay with NCI-H460 lung and in the assay with HS 578T breast was over 100 µM throughout.
On to `Clc1ccc(-c2nnc3sc4nc5ccccc5c-4nn23)c(Cl)c1`, for which the TGI in the assay with UO-31 renal, in the assay with UACC-62 melanoma, with A549 NSCLC, with HT29 colon, in the assay on COLO 205 colon and in the assay with SNB-19 CNS was over 100 µM in each case. For the same compound, the TGI with NCI-H460 lung and in the assay on HS 578T breast was over 100 µM each time.
In the case of `Cc1cc(/N=C/c2ccc(N(C)C)cc2)n(-c2ccccc2)n1`, the TGI in the assay on UO-31 renal, in the assay with UACC-62 melanoma, with A549 NSCLC, in the assay on HT29 colon, in the assay with COLO 205 colon and in the assay with SNB-19 CNS was over 100 µM in each case. The TGI with NCI-H460 lung and in the assay with HS 578T breast was over 100 µM each time.
In the case of `CC(C)SC(=S)Sc1c(Cl)c(Cl)nc(Cl)c1Cl`, the TGI in the assay with UO-31 renal came to 21.2 µM; with UACC-62 melanoma, 24.1 µM; with A549 NSCLC it was 40.8 µM; with HT29 colon it was 12.5 µM; in the assay with COLO 205 colon, 24.7 µM; with SNB-19 CNS, 21.1 µM. The TGI in the assay with NCI-H460 lung is 36.6 µM; in the assay with HS 578T breast, 44.7 µM.
For `O=C(O)CN1CCN2CCCCCN(CC1)CCN(CC(=O)O)CC2`, the TGI in the assay on UO-31 renal, in the assay on UACC-62 melanoma, with A549 NSCLC, with HT29 colon, in the assay with COLO 205 colon and with SNB-19 CNS was over 100 µM each time. The TGI in the assay with NCI-H460 lung and with HS 578T breast was over 100 µM throughout.
Take `OC[C@H]1O[C@@H]2O[C@@](COCc3ccccc3)([C@H](OCc3ccccc3)[C@H]2O)[C@@H]1OCc1ccccc1`: the TGI in the assay on UO-31 renal was determined as 29.4 µM; with UACC-62 melanoma, 27.7 µM; in the assay on A549 NSCLC it was 29.3 µM; in the assay on HT29 colon, 17.3 µM; with COLO 205 colon it was 35 µM; in the assay on SNB-19 CNS, 32.4 µM. Moreover, the TGI was determined as 34.2 µM with NCI-H460 lung and 31.7 µM in the assay with HS 578T breast.
On to `O=S(=O)(O)C(CO)c1ccccc1` (centres undefined) (tested in a mixture with another compound), for which the TGI in the assay on UO-31 renal, in the assay with UACC-62 melanoma, with A549 NSCLC, in the assay on HT29 colon, with COLO 205 colon and in the assay with SNB-19 CNS was over 100 µM in each case. Besides, the TGI with NCI-H460 lung and with HS 578T breast was over 100 µM each time.
Regarding `S=c1c2cn[nH]c2nc2scc(-c3ccc(Cl)cc3)n12`, the TGI in the assay on UO-31 renal is 41.8 µM; in the assay with UACC-62 melanoma, over 100 µM; with A549 NSCLC, 30.5 µM; with HT29 colon, 32.6 µM; in the assay on COLO 205 colon it was 65.3 µM; in the assay on SNB-19 CNS, 86.2 µM. Further, the TGI worked out at 57.5 µM in the assay with NCI-H460 lung and 38.8 µM in the assay with HS 578T breast.
With `N[C@@H](Cc1ccccc1)C(=O)N1CCC[C@@H]1P(=O)(Oc1ccccc1)Oc1ccccc1`, the TGI in the assay on UO-31 renal, in the assay with UACC-62 melanoma, in the assay on A549 NSCLC, in the assay on HT29 colon, with COLO 205 colon and in the assay with SNB-19 CNS was over 100 µM each time. Further, the TGI in the assay on NCI-H460 lung and in the assay with HS 578T breast was over 100 µM each time.
In the case of `CCOC(=O)c1c(-c2ccc(O)c(OC)c2)c(C#N)c(=S)n(C2OC(CO)C(O)C(O)C2O)c1-c1ccccc1` (centres undefined), the TGI in the assay with UO-31 renal, in the assay with UACC-62 melanoma, in the assay on A549 NSCLC, in the assay on HT29 colon, in the assay on COLO 205 colon and in the assay on SNB-19 CNS was over 100 µM throughout. In addition, the TGI in the assay on NCI-H460 lung and in the assay on HS 578T breast was over 100 µM each time.
With `O=P(O)(O)C(N=C(Nc1ccccc1)Nc1ccccc1)P(=O)(O)O`, the TGI in the assay on UO-31 renal, in the assay with UACC-62 melanoma, with A549 NSCLC, with HT29 colon, with COLO 205 colon and with SNB-19 CNS was over 100 µM each time. Besides, the TGI in the assay with NCI-H460 lung and in the assay with HS 578T breast was over 100 µM in each case.
For `CC1(C)OC[C@@H](O)[C@H](C#N)CO1`, the TGI in the assay on UO-31 renal, with UACC-62 melanoma, in the assay on A549 NSCLC, in the assay on HT29 colon, in the assay on COLO 205 colon and with SNB-19 CNS was over 100 µM each time. Moreover, the TGI in the assay with NCI-H460 lung and in the assay on HS 578T breast was over 100 µM throughout.
On to `O=C1NC2c3c(I)sc(I)c3C(O)C2O1` (centres undefined), for which the TGI with UO-31 renal, in the assay on UACC-62 melanoma, with A549 NSCLC, with HT29 colon, in the assay on COLO 205 colon and in the assay with SNB-19 CNS was over 100 µM in each case. Besides, the TGI with NCI-H460 lung and in the assay on HS 578T breast was over 100 µM in each case.
As to `C[C@H](CCC(=O)O)[C@H]1CC[C@H]2[C@@H]3C(=O)C[C@@H]4C[C@H](O)CC[C@]4(C)[C@H]3C[C@H](O)[C@]12C`, the TGI in the assay with UO-31 renal, in the assay with UACC-62 melanoma, in the assay on A549 NSCLC, in the assay with HT29 colon, with COLO 205 colon and in the assay with SNB-19 CNS was over 100 µM each time. In addition, the values for the TGI in the assay on NCI-H460 lung and in the assay with HS 578T breast were over 100 µM and 78.9 µM, respectively.
With `BrC(=C(c1ccc(OC2CCCCO2)cc1)c1ccc(OC2CCCCO2)cc1)c1ccccc1` (centres undefined), the TGI with UO-31 renal, with UACC-62 melanoma, in the assay with A549 NSCLC, in the assay on HT29 colon, with COLO 205 colon and in the assay on SNB-19 CNS was over 100 µM throughout. Further, the TGI in the assay on NCI-H460 lung and with HS 578T breast was over 100 µM each time.
Take `CC(C)(C)[Si](C)(C)OCC1OC(n2ccc(=O)[nH]c2=O)C(O[Si](C)(C)C(C)(C)C)/C1=C/C#N` (centres undefined): the TGI with UO-31 renal was over 100 µM; in the assay with UACC-62 melanoma it was 2.75 µM; in the assay with A549 NSCLC, over 100 µM; with HT29 colon it was over 47.7 µM; with COLO 205 colon, 9.83 µM; in the assay on SNB-19 CNS it was over 100 µM. Moreover, the TGI in the assay with NCI-H460 lung and in the assay on HS 578T breast was over 100 µM throughout.
On to `O=C(O)CN1CCNCCN(CC(=O)O)CCN(CC(=O)O)CCNCC1`, for which the TGI in the assay on UO-31 renal, in the assay with UACC-62 melanoma, in the assay with A549 NSCLC, in the assay on HT29 colon, in the assay on COLO 205 colon and with SNB-19 CNS was over 100 µM in each case. For the same compound, the TGI in the assay with NCI-H460 lung and in the assay on HS 578T breast was over 100 µM in each case.
